# Laboratory results from patent US20110009332A1, “Therapeutic Treatment Of Wounds” (SOUTHWEST RESEARCH INSTITUTE, priority 2009, published 2011).
# Target: 20S proteasomes (Homo sapiens, UniProt P28074)
# Test: Inhibition of 20S proteasome enzyme activity
# Assay type: biochemical
# Conditions: 0 nM to 10,000 nM, FIGS. 7-9
# Experimental: The IC50 may be understood as the amount of a particular substance/molecule needed to inhibit a given biological process in vitro by 50% and may be an indicator of the potency of a compound. The activity of the proteasome may be quantified by measuring the amount of fluorescence produced by cleavage of a fluorogenic substrate, such as LLVY-AMC, which when released by proteasomal cleavage, may emit fluorescent light.
# The enzyme activity of 20S proteasomes was measured upon increasing addition of the proteasome inhibitors PS-1, curcumin and genestein in concentrations ranging from 0 nM to 10,000 nM. In particular, FIG. 7 illustrates the inhibition of 20S proteasomes upon the addition of PS-1. […] FIG. 8 illustrates the inhibition of the 20S proteasomes upon the addition of curcumin. […] FIG. 9 illustrates the inhibition of the 20S proteasomes upon the addition of genestein.
smiles,measurement,value
O=c1c(-c2ccc(O)cc2)coc2cc(O)cc(O)c12 [genestein],enzyme activity of 20S proteasomes with increasing inhibitor concentration (in words),relatively smaller decrease in enzyme activity
